{"source": "patent US20240360178A1", "about": "“MACROCYCLIC IMMUNOMODULATORS” (Bristol-Myers Squibb Company, priority 2021, published 2024)", "note": "Positions of bridges follow the written chain, without caps; N, C: chain ends. Non-standard residues stand in square brackets, D forms with d. Residues, ends and D or L forms follow the SMILES beside them. *: point of attachment. Tyr(3,5-Br2) = N[C@@H](Cc1cc(Br)c(O)c(Br)c1)C(=O)O; Phe(4-COOH) = N[C@@H](Cc1ccc(C(=O)O)cc1)C(=O)O; Bip = N[C@@H](Cc1ccc(-c2ccccc2)cc1)C(=O)O; Phe(3-Cl) = N[C@@H](Cc1cccc(Cl)c1)C(=O)O; Val(3-OH) = CC(C)(O)[C@H](N)C(=O)O; NMeF = CN[C@@H](Cc1ccccc1)C(=O)O; 4Pal = N[C@@H](Cc1ccncc1)C(=O)O; Cha = N[C@@H](CC1CCCCC1)C(=O)O; dPip = O=C(O)[C@H]1CCCCN1; Carboxymethyl = O=C(O)C*; NMeA = CN[C@@H](C)C(=O)O; Nle = CCCC[C@H](N)C(=O)O; Orn = NCCC[C@H](N)C(=O)O; Dab = NCC[C@H](N)C(=O)O; Abu = CC[C@H](N)C(=O)O; Dap = NC[C@H](N)C(=O)O; Sar = CNCC(=O)O"}
{"target": "T1, human PD-1 (Jurkat-PD-1 cells) / PE-labeled human PD-L1-Ig (Homo sapiens, UniProt Q15116)", "T1 construct": "expressed in transfected cells; host or cells: Jurkat cell line over-expressing human PD-1", "T1 sequence (Q15116 25-288)": "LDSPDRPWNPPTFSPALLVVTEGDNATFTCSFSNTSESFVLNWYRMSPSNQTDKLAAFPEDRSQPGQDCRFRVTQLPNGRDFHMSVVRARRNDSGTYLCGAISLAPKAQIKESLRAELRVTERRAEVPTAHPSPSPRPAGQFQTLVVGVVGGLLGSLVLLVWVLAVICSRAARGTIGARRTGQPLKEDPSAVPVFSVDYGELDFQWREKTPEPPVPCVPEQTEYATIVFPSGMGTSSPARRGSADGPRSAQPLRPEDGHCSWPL", "assay": "Jurkat-PD-1 Cell Binding High-Content Screening Assay (CBA); Jurkat hPD1-PDL1 assay", "settings": "Jurkat cell line over-expressing human PD-1; PE-labeled PD-L1-Ig 20 nM final; compound incubated 2 hours at 37° C.; read-out: Jurkat HPD1-PDL1 IC50", "method_in_brief": "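Jurkat-hPD-1 cells; cpd 2 h, 37° C; then PE-PD-L1-Ig 20 nM final in DMEM/10% FCS; high-content imaging read-out.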", "units": {"IC50": "nM"}}
{"smiles": "CC(C)C[C@@H]1NC(=O)[C@H](Cc2c[nH]c3ccccc23)NC(=O)[C@H](CC(=O)O)NC(=O)[C@H](Cc2ccc(C(=O)O)cc2)NC(=O)[C@H](Cc2ccncc2)NC(=O)CSC[C@@H](C(=O)N[C@@H](CCN)C(N)=O)NC(=O)[C@H](CO)NC(=O)[C@H](C(C)(C)O)NC(=O)[C@H](CC2CCCCC2)NC(=O)[C@H](CCN)NC(=O)[C@H]2CCCCN2C(=O)[C@H]2CCCN2C(=O)[C@H](C(C)C)NC(=O)[C@H](Cc2ccc(-c3ccccc3)cc2)NC1=O", "note": "[Example 1189] ({CH2CO}-[4Pal][Phe(4-COOH)]DWL[Bip]V[dP][dPip][Dab][Cha][Val(3-OH)]SC[Dab]-NH2; thioether N-14)", "IC50": 70}
{"smiles": "CC(C)C[C@@H]1NC(=O)[C@H](CCN)NC(=O)[C@H](Cc2ccccc2)N(C)C(=O)[C@H](C)N(C)C(=O)[C@H](CCCNC(=N)N)NC(=O)[C@H](Cc2ccc(-c3ccccc3)cc2)NC(=O)[C@H](C(C)C)NC(=O)[C@H](Cc2c[nH]c3ccccc23)NC(=O)[C@H](CC(=O)O)NC(=O)[C@H](Cc2ccc(O)cc2)NC(=O)[C@H](CCC(N)=O)NC(=O)CSC[C@@H](C(=O)N[C@@H](C)C(N)=O)NC(=O)[C@H](CO)NC(=O)[C@H](C(C)C)NC1=O", "note": "[Example 1307] ({CH2CO}-QYDWV[Bip]R[NMeA][NMeF][Dab]LVSCA-NH2; thioether N-14)", "IC50": 170}
{"smiles": "CC(C)C[C@@H]1NC(=O)[C@H](Cc2c[nH]c3ccccc23)NC(=O)[C@H](CC(=O)O)NC(=O)[C@H](Cc2ccc(O)cc2)NC(=O)[C@H](CC2CCCCC2)NC(=O)CSC[C@@H](C(=O)NCC(N)=O)NC(=O)[C@H](CO)NC(=O)[C@H](C(C)C)NC(=O)[C@H](CC(C)C)NC(=O)[C@H](CC(N)=O)NC(=O)CN(C)C(=O)[C@H](C)N(C)C(=O)[C@H](C(C)C)NC(=O)[C@H](Cc2ccc(-c3ccccc3)cc2)NC1=O", "note": "[Example 1117] ({CH2CO}-[Cha]YDWL[Bip]V[NMeA][Sar]NLVSCG-NH2; thioether N-14)", "IC50": 410}
{"smiles": "CC(C)C[C@@H]1NC(=O)[C@H](CCCNC(=N)N)NC(=O)[C@H](Cc2ccccc2)N(C)C(=O)[C@H](C)N(C)C(=O)[C@H](CCC(=O)O)NC(=O)[C@H](Cc2ccc(-c3ccccc3)cc2)NC(=O)[C@H](C(C)C)NC(=O)[C@H](Cc2c[nH]c3ccccc23)NC(=O)[C@H](CC(=O)O)NC(=O)[C@H](Cc2ccc(O)cc2)NC(=O)[C@H](Cc2ccccc2)NC(=O)CSC[C@@H](C(=O)N[C@@H](C)C(N)=O)NC(=O)[C@H]([C@@H](C)O)NC(=O)[C@H](C(C)C)NC1=O", "note": "[Example 1344] ({CH2CO}-FYDWV[Bip]E[NMeA][NMeF]RLVTCA-NH2; thioether N-14)", "IC50": 220}
{"smiles": "CC(C)C[C@@H]1NC(=O)[C@H](Cc2c[nH]c3ccccc23)NC(=O)[C@H](CC(=O)O)NC(=O)[C@H](Cc2ccc(O)cc2)NC(=O)[C@H](Cc2ccccc2)NC(=O)CSC[C@@H](C(=O)N[C@@H](C)C(N)=O)NC(=O)[C@H](CO)NC(=O)[C@H](C(C)C)NC(=O)[C@H](CC2CCCCC2)NC(=O)[C@H](CC(N)=O)NC(=O)CN(C)C(=O)[C@H](C)N(C)C(=O)[C@H](C(C)C)NC(=O)[C@H](Cc2ccc(-c3ccccc3)cc2)NC1=O", "note": "[Example 1093] ({CH2CO}-FYDWL[Bip]V[NMeA][Sar]N[Cha]VSCA-NH2; thioether N-14)", "IC50": 270}
{"smiles": "CC(C)C[C@@H]1NC(=O)[C@H](Cc2c[nH]c3ccccc23)NC(=O)[C@H](CC(=O)O)NC(=O)[C@H](Cc2cc(Br)c(O)c(Br)c2)NC(=O)[C@H](Cc2ccccc2)NC(=O)CSC[C@@H](C(=O)N[C@@H](C)C(N)=O)NC(=O)[C@H](CO)NC(=O)[C@H](C(C)C)NC(=O)[C@H](CC(C)C)NC(=O)[C@H](CC(N)=O)NC(=O)CN(C)C(=O)[C@H](C)N(C)C(=O)[C@H](C(C)C)NC(=O)[C@H](Cc2ccc(-c3ccccc3)cc2)NC1=O", "note": "[Example 1113] ({CH2CO}-F[Tyr(3,5-Br2)]DWL[Bip]V[NMeA][Sar]NLVSCA-NH2; thioether N-14)", "IC50": 370}
{"smiles": "CC(C)C[C@@H]1NC(=O)[C@H](Cc2c[nH]c3ccccc23)NC(=O)[C@H](CC(=O)O)NC(=O)[C@H](Cc2ccc(O)cc2)NC(=O)[C@H](Cc2ccccc2)NC(=O)CSC[C@@H](C(=O)N[C@@H](C)C(N)=O)NC(=O)[C@H](CO)NC(=O)[C@H](C(C)C)NC(=O)[C@H](CC(C)C)NC(=O)[C@H](CCN)NC(=O)[C@H]2CCCN2C(=O)[C@H](CN)NC(=O)[C@H](C(C)C)NC(=O)[C@H](Cc2ccc(-c3ccccc3)cc2)NC1=O", "note": "[Example 1408] ({CH2CO}-FYDWL[Bip]V[Dap][dP][Dab]LVSCA-NH2; thioether N-14)", "IC50": 90}
{"smiles": "CC(C)C[C@@H]1NC(=O)[C@H](Cc2c[nH]c3ccccc23)NC(=O)[C@H](CC(=O)O)NC(=O)[C@H](Cc2ccc(O)cc2)NC(=O)[C@H](CC(N)=O)NC(=O)CSC[C@@H](C(=O)N[C@@H](C)C(N)=O)NC(=O)[C@H](CO)NC(=O)[C@H](C(C)C)NC(=O)[C@H](CC(C)C)NC(=O)[C@H](CCN)NC(=O)[C@H]2CCCN2C(=O)[C@H](CCCN)NC(=O)[C@H](C(C)C)NC(=O)[C@H](Cc2ccc(-c3ccccc3)cc2)NC1=O", "note": "[Example 1401] ({CH2CO}-NYDWL[Bip]V[Orn][dP][Dab]LVSCA-NH2; thioether N-14)", "IC50": 170}
{"smiles": "CC(C)C[C@@H]1NC(=O)[C@H](Cc2c[nH]c3ccccc23)NC(=O)[C@H](CC(=O)O)NC(=O)[C@H](Cc2ccc(O)cc2)NC(=O)[C@H](Cc2ccccc2)NC(=O)CSC[C@@H](C(=O)NCC(N)=O)NC(=O)[C@H]([C@@H](C)O)NC(=O)[C@H](C(C)C)NC(=O)[C@H](CC(C)C)NC(=O)[C@H](CCN)NC(=O)[C@H]2CCCN2C(=O)[C@H](CCN)NC(=O)[C@H](C(C)C)NC(=O)[C@H](Cc2ccc(-c3ccccc3)cc2)NC1=O", "note": "[Example 1414] ({CH2CO}-FYDWL[Bip]V[Dab][dP][Dab]LVTCG-NH2; thioether N-14)", "IC50": 320}
{"smiles": "CC(C)C[C@@H]1NC(=O)[C@H](CCCNC(=N)N)NC(=O)[C@H](Cc2ccccc2)N(C)C(=O)[C@H](C)N(C)C(=O)[C@H](CCCNC(=N)N)NC(=O)[C@H](Cc2ccc(-c3ccccc3)cc2)NC(=O)[C@H](C(C)C)NC(=O)[C@H](Cc2c[nH]c3ccccc23)NC(=O)[C@H](CC(=O)O)NC(=O)[C@H](Cc2ccc(O)cc2)NC(=O)[C@H](Cc2ccccc2)NC(=O)CSC[C@@H](C(=O)NCC(N)=O)NC(=O)[C@H](CN)NC(=O)[C@H](C(C)C)NC1=O", "note": "[Example 1330] ({CH2CO}-FYDWV[Bip]R[NMeA][NMeF]RLV[Dap]CG-NH2; thioether N-14)", "IC50": 390}
{"smiles": "CCCC[C@@H]1NC(=O)[C@H](CCCCN)NC(=O)[C@H](Cc2ccccc2)N(C)C(=O)[C@H](CC(=O)O)NC(=O)[C@H](CCCNC(=N)N)NC(=O)[C@H](Cc2ccc(-c3ccccc3)cc2)NC(=O)[C@H](C(C)C)NC(=O)[C@H](Cc2c[nH]c3ccccc23)NC(=O)[C@H](CC(=O)O)NC(=O)[C@H](Cc2ccc(O)cc2)NC(=O)[C@H](Cc2ccccc2)NC(=O)CSC[C@@H](C(=O)NCC(N)=O)NC(=O)[C@H](CCCNC(=N)N)NC(=O)[C@H](C(C)C)NC1=O", "note": "[Example 1192] ({CH2CO}-FYDWV[Bip]RD[NMeF]K[Nle]VRCG-NH2; thioether N-14)", "IC50": 920}
{"smiles": "CC(C)C[C@@H]1NC(=O)[C@H](CCCNC(=N)N)NC(=O)[C@H](Cc2ccccc2)N(C)C(=O)[C@H](C)N(C)C(=O)[C@H](CCC(=O)O)NC(=O)[C@H](Cc2ccc(-c3ccccc3)cc2)NC(=O)[C@H](C(C)C)NC(=O)[C@H](Cc2c[nH]c3ccccc23)NC(=O)[C@H](CC(=O)O)NC(=O)[C@H](Cc2ccc(O)cc2)NC(=O)[C@H](Cc2ccccc2)NC(=O)CSC[C@@H](C(=O)NCC(N)=O)NC(=O)[C@H](CO)NC(=O)[C@H](C(C)C)NC1=O", "note": "[Example 1214] ({CH2CO}-FYDWV[Bip]E[NMeA][NMeF]RLVSCG-NH2; thioether N-14)", "IC50": 60}
{"smiles": "CC(C)C[C@@H]1NC(=O)[C@H](C(C)C)NC(=O)CN(C)C(=O)[C@H](C)N(C)C(=O)[C@H](C(C)C)NC(=O)[C@H](Cc2ccc(-c3ccccc3)cc2)NC(=O)[C@H](Cc2ccc(O)cc2)NC(=O)[C@H](Cc2c[nH]c3ccccc23)NC(=O)[C@H](CC(=O)O)NC(=O)[C@H](Cc2ccc(O)cc2)NC(=O)[C@H](Cc2ccccc2)NC(=O)CSC[C@@H](C(=O)NCC(N)=O)NC(=O)[C@H](CO)NC(=O)[C@H](C(C)C)NC1=O", "note": "[Example 1235] ({CH2CO}-FYDWY[Bip]V[NMeA][Sar]VLVSCG-NH2; thioether N-14)", "IC50": 110}
{"smiles": "CC(C)C[C@@H]1NC(=O)[C@H](Cc2c[nH]c3ccccc23)NC(=O)[C@H](CC(=O)O)NC(=O)[C@H](Cc2ccc(OCC(=O)O)cc2)NC(=O)[C@H](CC(N)=O)NC(=O)CSC[C@@H](C(=O)N[C@@H](C)C(N)=O)NC(=O)[C@H](CO)NC(=O)[C@H](C(C)C)NC(=O)[C@H](CC(C)C)NC(=O)[C@H](CC(N)=O)NC(=O)[C@H]2CCCN2C(=O)[C@H](C)N(C)C(=O)[C@H](C(C)C)NC(=O)[C@H](Cc2ccc(-c3ccccc3)cc2)NC1=O", "note": "[Example 1042] ({CH2CO}-NY(Carboxymethyl)DWL[Bip]V[NMeA][dP]NLVSCA-NH2; thioether N-14)", "IC50": 70}
{"smiles": "CC[C@H](NC(=O)[C@@H]1CSCC(=O)N[C@@H](Cc2ccccc2)C(=O)N[C@@H](Cc2ccc(O)cc2)C(=O)N[C@@H](CC(=O)O)C(=O)N[C@@H](Cc2c[nH]c3ccccc23)C(=O)N[C@@H](C(C)C)C(=O)N[C@@H](Cc2ccc(-c3ccccc3)cc2)C(=O)N[C@@H](CCCNC(=N)N)C(=O)N(C)[C@@H](C)C(=O)N(C)[C@@H](Cc2ccccc2)C(=O)N[C@@H](CCCNC(=N)N)C(=O)N[C@@H](CC(C)C)C(=O)N[C@@H](C(C)C)C(=O)N[C@@H](CO)C(=O)N1)C(N)=O", "note": "[Example 1337] ({CH2CO}-FYDWV[Bip]R[NMeA][NMeF]RLVSC[Abu]-NH2; thioether N-14)", "IC50": 870}
{"smiles": "CC(C)C[C@@H]1NC(=O)[C@H](CCCNC(=N)N)NC(=O)[C@H](Cc2ccccc2)N(C)C(=O)[C@H](C)N(C)C(=O)[C@H](CCCNC(=N)N)NC(=O)[C@H](Cc2ccc(-c3ccccc3)cc2)NC(=O)[C@H](C(C)C)NC(=O)[C@H](Cc2cccc(Cl)c2)NC(=O)[C@H](CC(=O)O)NC(=O)[C@H](Cc2ccc(O)cc2)NC(=O)[C@H](Cc2ccccc2)NC(=O)CSC[C@@H](C(=O)NCC(N)=O)NC(=O)[C@H](CO)NC(=O)[C@H](C(C)C)NC1=O", "note": "[Example 1241] ({CH2CO}-FYD[Phe(3-Cl)]V[Bip]R[NMeA][NMeF]RLVSCG-NH2; thioether N-14)", "IC50": 270}
